Reference: patent publication US6737383B1, “Herbicidal oxadiazolidines” (priority 1999, dated 2004)

How the values were obtained:
sugar beet = experiment: Test B pre/postemergence sugar beet; type: in vivo, Beta vulgaris
In short: (§1)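 Response is a visual 0-to-10 score relative to untreated plants, where 0 means no effect and 10 means complete control, taken twelve to sixteen days after application. Treatments went onto soil at planting and onto foliage of 1- to 4-leaf plants, using a surfactant-containing non-phytotoxic solvent.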

wild oat = experiment: Test B pre/postemergence wild oat; type: in vivo, Avena fatua
In short: as §1

surinam grass = experiment: Test B pre/postemergence surinam grass; type: in vivo, Brachiaria decumbens
In short: as §1

giant foxtail = experiment: Test B pre/postemergence giant foxtail; type: in vivo, Setaria faberii
In short: as §1

crabgrass = experiment: Test B pre/postemergence crabgrass; type: in vivo, Digitaria sanguinalis
In short: as §1

purple nutsedge = experiment: Test B pre/postemergence purple nutsedge; type: in vivo, Cyperus rotundus
In short: as §1

cocklebur = experiment: Test B pre/postemergence cocklebur; type: in vivo, Xanthium strumarium
In short: as §1

bamyardgrass = experiment: Test B flood test barnyardgrass; type: in vivo, Echinochloa crus-galli
In short: (§2)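 Each value is a visual injury score relative to controls, with 10 meaning complete control and 0 no effect. Evaluation took place twelve to sixteen days after the 2-leaf-stage plants were treated and kept in the greenhouse.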

corn = experiment: Test B pre/postemergence corn; type: in vivo, Zea mays
In short: as §1

pigweed = experiment: Test B pre/postemergence pigweed; type: in vivo, Amaranthus retroflexus
In short: as §1

morningglory = experiment: Test B pre/postemergence morningglory; type: in vivo, Ipomoea hederacea
In short: as §1

velvetleaf = experiment: Test B pre/postemergence velvetleaf; type: in vivo, Abutilon theophrasti
In short: as §1

smallflower flatsedge = experiment: Test B flood test smallflower flatsedge; type: in vivo, Cyperus difformis
In short: as §2

blackgrass = experiment: Test B pre/postemergence blackgrass; type: in vivo, Alopecurus myosuroides
In short: as §1

soybean = experiment: Test B pre/postemergence soybean; type: in vivo, Glycine max
In short: as §1

rape = experiment: Test B pre/postemergence rape; type: in vivo, Brassica napus
In short: as §1

[1] = Preemergence, Rate 62 g/ha, scale of 0 to 10 where 0 is no effect and 10 is complete control
[2] = Preemergence, Rate 250 g/ha, scale of 0 to 10 where 0 is no effect and 10 is complete control
[3] = Preemergence, Rate 500 g/ha, scale of 0 to 10 where 0 is no effect and 10 is complete control
[4] = Rate 125 g/ha, Postemergence, scale of 0 to 10 where 0 is no effect and 10 is complete control
[5] = Rate 125 g/ha, Preemergence, scale of 0 to 10 where 0 is no effect and 10 is complete control
[6] = Rate 250 g/ha, Postemergence, scale of 0 to 10 where 0 is no effect and 10 is complete control
[7] = Rate 500 g/ha, Postemergence, scale 0 to 10, 0 no effect, 10 complete control
[8] = Rate 62 g/ha, Postemergence, scale of 0 to 10 where 0 is no effect and 10 is complete control
[9] = Rate 62 g/ha, headed Pre-emergence (flood test species), scale 0 to 10 (0 no effect, 10 complete control)
[10] = Rate 125 g/ha, Pre-emergence, flood test species, scale 0 to 10 where 0 is no effect and 10 is complete control
[11] = Rate 250 g/ha, Pre-emergence, flood-test species, scale 0 to 10, 0 is no effect, 10 is complete control
[12] = Rate 500 g/ha, Pre-emergence, flood test species, scale 0 to 10 (0 no effect, 10 complete control)

## CC(C)N(C(=O)n1oc(=O)n(-c2ccsc2)c1=O)c1ccc(F)cc1 [Compound 272]
Sugar beet; [1]
  Sugarbeets plant response rating: 0
Sugar beet; [2]
  Sugarbeets plant response rating: 0
Sugar beet; [3]
  Plant response rating, Sugarbeets: 0
Sugar beet; [4]
  Sugarbeets plant response rating: 0
Sugar beet; [5]
  Sugarbeets plant response rating: 0
Sugar beet; [6]
  Plant response rating, Sugarbeets: 0
Sugar beet; [7]
  Sugarbeets plant response rating: 0
Wild oat; [1]
  Wild oats plant response rating: 0
Wild oat; [2]
  Wild oats plant response rating: 0
Wild oat; [3]
  Plant response rating, Wild oats: 2
Wild oat; [4]
  Wild oats plant response rating: 0
Wild oat; [6]
  Plant response rating, Wild oats: 0
Wild oat; [7]
  Wild oats plant response rating: 0
Surinam grass; [1]
  B. signalgrass plant response rating: 0
Surinam grass; [2]
  B. signalgrass plant response rating: 0
Surinam grass; [3]
  Plant response rating, B. signalgrass: 0
Surinam grass; [8]
  B. signalgrass plant response rating: 0
Surinam grass; [4]
  B. signalgrass plant response rating: 0
Surinam grass; [5]
  B. signalgrass plant response rating: 0
Surinam grass; [6]
  Plant response rating, B. signalgrass: 0
Surinam grass; [7]
  B. signalgrass plant response rating: 0
Giant foxtail; [1]
  Giant foxtail plant response rating: 2
Giant foxtail; [2]
  Giant foxtail plant response rating: 6
Giant foxtail; [3]
  Plant response rating, Giant foxtail: 6
Giant foxtail; [4]
  Giant foxtail plant response rating: 0
Giant foxtail; [5]
  Giant foxtail plant response rating: 5
Giant foxtail; [6]
  Plant response rating, Giant foxtail: 0
Giant foxtail; [7]
  Giant foxtail plant response rating: 0
crabgrass; [1]
  Crabgrass plant response rating: 0
crabgrass; [2]
  Crabgrass plant response rating: 0
crabgrass; [3]
  Plant response rating, Crabgrass: 2
crabgrass; [4]
  Crabgrass plant response rating: 0
crabgrass; [5]
  Crabgrass plant response rating: 0
crabgrass; [6]
  Plant response rating, Crabgrass: 0
crabgrass; [7]
  Crabgrass plant response rating: 0
Purple nutsedge; [1]
  Nutsedge plant response rating: 0
Purple nutsedge; [2]
  Nutsedge plant response rating: 0
Purple nutsedge; [3]
  Plant response rating, Nutsedge: 0
Purple nutsedge; [4]
  Nutsedge plant response rating: 0
Purple nutsedge; [5]
  Nutsedge plant response rating: 0
Purple nutsedge; [6]
  Plant response rating, Nutsedge: 0
Purple nutsedge; [7]
  Nutsedge plant response rating: 0
cocklebur; [1]
  Cocklebur plant response rating: 0
cocklebur; [2]
  Cocklebur plant response rating: 0
cocklebur; [3]
  Plant response rating, Cocklebur: 0
cocklebur; [8]
  Cocklebur plant response rating: 0
cocklebur; [4]
  Cocklebur plant response rating: 0
cocklebur; [5]
  Cocklebur plant response rating: 0
cocklebur; [6]
  Plant response rating, Cocklebur: 1
cocklebur; [7]
  Cocklebur plant response rating: 1
bamyardgrass; [9]
  Barnyardgrass plant response rating: 0
bamyardgrass; [10]
  Barnyardgrass plant response rating: 0
bamyardgrass; [11]
  Barnyardgrass plant response rating: 0
bamyardgrass; [12]
  Barnyardgrass plant response rating: 0
corn; [1]
  Corn plant response rating: 0
corn; [2]
  Corn plant response rating: 0
corn; [3]
  Plant response rating, Corn: 0
corn; [8]
  Corn plant response rating: 0
corn; [4]
  Corn plant response rating: 0
corn; [5]
  Corn plant response rating: 0
corn; [6]
  Plant response rating, Corn: 0
corn; [7]
  Corn plant response rating: 0
pigweed; [1]
  Redroot pigweed plant response rating: 0
pigweed; [2]
  Redroot pigweed plant response rating: 0
pigweed; [3]
  Plant response rating, Redroot pigweed: 3
pigweed; [4]
  Redroot pigweed plant response rating: 0
pigweed; [5]
  Redroot pigweed plant response rating: 0
pigweed; [6]
  Plant response rating, Redroot pigweed: 2
pigweed; [7]
  Redroot pigweed plant response rating: 4
morningglory; [1]
  Morningglory plant response rating: 0
morningglory; [2]
  Morningglory plant response rating: 0
morningglory; [3]
  Plant response rating, Morningglory: 0
morningglory; [4]
  Morningglory plant response rating: 1
morningglory; [5]
  Morningglory plant response rating: 0
morningglory; [6]
  Plant response rating, Morningglory: 1
morningglory; [7]
  Morningglory plant response rating: 7
velvetleaf; [1]
  Velvetleaf plant response rating: 0
velvetleaf; [2]
  Velvetleaf plant response rating: 0
velvetleaf; [3]
  Plant response rating, Velvetleaf: 0
velvetleaf; [4]
  Velvetleaf plant response rating: 0
velvetleaf; [5]
  Velvetleaf plant response rating: 0
velvetleaf; [6]
  Plant response rating, Velvetleaf: 0
velvetleaf; [7]
  Velvetleaf plant response rating: 0
Smallflower flatsedge; [9]
  S. Flatsedge plant response rating: 0
Smallflower flatsedge; [10]
  S. Flatsedge plant response rating: 0
Smallflower flatsedge; [11]
  S. Flatsedge plant response rating: 0
Smallflower flatsedge; [12]
  S. Flatsedge plant response rating: 0
blackgrass; [1]
  Blackgrass plant response rating: 0
blackgrass; [2]
  Blackgrass plant response rating: 0
blackgrass; [3]
  Plant response rating, Blackgrass: 0
blackgrass; [8]
  Blackgrass plant response rating: 0
blackgrass; [4]
  Blackgrass plant response rating: 0
blackgrass; [5]
  Blackgrass plant response rating: 0
blackgrass; [6]
  Plant response rating, Blackgrass: 2
blackgrass; [7]
  Blackgrass plant response rating: 6
soybean; [1]
  Soybean plant response rating: 0
soybean; [2]
  Soybean plant response rating: 0
soybean; [3]
  Plant response rating, Soybean: 0
soybean; [4]
  Soybean plant response rating: 1
soybean; [5]
  Soybean plant response rating: 0
soybean; [6]
  Plant response rating, Soybean: 1
soybean; [7]
  Soybean plant response rating: 1
rape; [1]
  Rape plant response rating: 0
rape; [2]
  Rape plant response rating: 0
rape; [3]
  Plant response rating, Rape: 0
rape; [4]
  Rape plant response rating: 0
rape; [5]
  Rape plant response rating: 0
rape; [6]
  Plant response rating, Rape: 0
rape; [7]
  Rape plant response rating: 0
